Measured values published in patent US8592403B2, “Diazepine and diazocane compounds as MC4 agonists” (Pfizer Limited, priority 2008, dated 2013).

Experiments:
CYP3A4 = biological target: T1, CYP3A4 (Homo sapiens, UniProt P08684); test: High density DDI 3 μM cocktail screen in human liver microsomes, midazolam probe; type: in vitro ADME; settings: human, liver microsomes, probe midazolam, read-out: % inhibition 3A4 @ 3 μM
T1 construct: utilizes human liver microsomes together with isoform-specific clinical drug probes; from tissue; host or cells: human liver microsomes
T1 sequence (P08684 whole entry, canonical isoform): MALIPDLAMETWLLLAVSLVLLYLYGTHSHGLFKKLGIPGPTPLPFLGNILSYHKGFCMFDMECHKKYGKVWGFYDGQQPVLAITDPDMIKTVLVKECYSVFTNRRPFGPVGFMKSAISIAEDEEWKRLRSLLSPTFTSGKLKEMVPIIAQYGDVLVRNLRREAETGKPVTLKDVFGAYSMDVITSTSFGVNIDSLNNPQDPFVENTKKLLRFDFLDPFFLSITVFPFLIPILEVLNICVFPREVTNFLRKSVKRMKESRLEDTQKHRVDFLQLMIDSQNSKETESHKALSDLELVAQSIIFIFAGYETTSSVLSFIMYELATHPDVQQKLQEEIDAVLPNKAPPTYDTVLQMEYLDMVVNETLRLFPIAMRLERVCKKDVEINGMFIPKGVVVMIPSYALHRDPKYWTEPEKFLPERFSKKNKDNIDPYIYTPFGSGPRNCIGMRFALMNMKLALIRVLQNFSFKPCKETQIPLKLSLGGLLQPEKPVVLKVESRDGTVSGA
How it was run: (§1)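 Pooled human liver microsomes incubated with isoform-specific clinical probe substrates as a cocktail (midazolam for CYP3A4), with or without test compound at 3 μM. Metabolite formation followed over time by LC-MS/MS. Inhibition expressed as a single-point percentage.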

MC4 receptor = MC4 receptor (Homo sapiens, UniProt P32245); test: MC4 EC50 functional potency (protocol E of US2005/0176772 / WO 2005/077935); type: cell-based
Chain of MC4 receptor (P32245 whole entry): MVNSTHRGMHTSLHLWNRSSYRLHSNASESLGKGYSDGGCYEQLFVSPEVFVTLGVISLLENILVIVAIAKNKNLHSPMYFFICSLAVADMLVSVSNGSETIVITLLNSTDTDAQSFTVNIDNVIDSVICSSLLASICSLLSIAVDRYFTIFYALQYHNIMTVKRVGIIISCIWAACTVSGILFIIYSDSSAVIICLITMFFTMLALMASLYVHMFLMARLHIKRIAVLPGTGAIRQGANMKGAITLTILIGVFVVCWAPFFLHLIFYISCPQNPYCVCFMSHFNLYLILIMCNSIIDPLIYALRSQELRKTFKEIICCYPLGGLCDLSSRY
Description: The compounds of formula (I) of the present invention have utility as MCR4 agonists in the treatment of various disease states.
MC5 and MC4 EC50 activity was determined as described by assay protocols D and E, respectively, in US2005/0176772 (pages 28-30).

[1] = In vitro metabolism rate determination, human liver microsome (HLM) assay; type: in vitro ADME; settings: for microsomal CLint at 1 μM: human, liver microsomes, read-out: HLM: Clint, app; for HLM: Clint, app: human liver microsomes, unit assumed
How it was run: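 Human liver microsomes at 0.5 nmol cytochrome P450/ml with 1 μM substrate, pre-warmed 5 min at 37° C, reaction started with NADP; samples taken 0–60 min and terminated. Substrate loss measured; first-order rate constant from log-linear regression converted to half-life or Clint (μl/min/mg protein).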

human MC3 receptors = biological target: T2, human MC3 receptors (Homo sapiens, UniProt P41968); test: In vitro agonist potency (EC50) at melanocortin receptor type 3, cAMP in recombinant cell line; type: cell-based
T2 construct: stably transfected with full length cDNA encoding human MC1 or MC3 receptors; expressed in transfected cells
T2 sequence (P41968 whole entry): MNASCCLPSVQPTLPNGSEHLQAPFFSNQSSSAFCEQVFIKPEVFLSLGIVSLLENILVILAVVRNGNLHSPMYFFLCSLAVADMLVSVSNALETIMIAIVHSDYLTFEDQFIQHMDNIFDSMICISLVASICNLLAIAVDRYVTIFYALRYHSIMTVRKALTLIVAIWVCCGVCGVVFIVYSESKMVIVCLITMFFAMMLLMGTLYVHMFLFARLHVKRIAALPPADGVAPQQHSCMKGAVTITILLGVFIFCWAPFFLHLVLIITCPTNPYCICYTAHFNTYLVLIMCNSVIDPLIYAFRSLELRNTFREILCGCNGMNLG
Description: Measurement of In Vitro Agonist Potency (EC50) of Compounds Against Melanocortin Receptors Type 1 and 3 (MC1 and MC3).
Activation of melanocortin (MC) receptors by agonists results in activation of intracellular adenylate cyclase enzymes that synthesise the second messenger signalling molecule, adenosine 3′,5′-cyclic monophosphate (cAMP). Changes in cAMP levels following treatment of recombinant MC1 and MC3 cell lines with test compound were measured and an MC1 and MC3 potency estimate (EC50) calculated as follows: […]
Human embryonic kidney (HEK) or Chinese hamster ovary cell lines stably transfected with full length cDNA encoding human MC1 or MC3 receptors, respectively, were established using standard molecular biology methods. Test compounds were dissolved in dimethyl sulfoxide (DMSO) at 4 mM. 11 point half log unit increment dilution series of test compound, typically starting at 50 uM were prepared in a buffer comprised of phosphate buffered saline (PBS), 2.5% DMSO and 0.05% pluronic F-127 surfactant. Freshly cultured cells at 80-90% confluence were harvested and re-suspended in Dulbecco's Modified Eagle's Medium (DMEM). Cells (10,000 for MC3, 20,000 for MC1) were added to the test compound dilution series in a 384 well assay plate and incubated for 1 hour at 37° C. The relative cAMP concentration in each well was then measured using a β-galactosidase enzyme fragment complementation method purchased in kit form as the Discoverx cAMP II kit from GE Healthcare/Amersham Biosciences UK. In the case of MC1,3-Isobutyl-1-methylxanthine (IBMX) at a concentration of 750 μM was included in DMEM as the cells were re-suspended for assay. […] Sigmoidal curves were fitted to plots of log10 inhibitor concentration vs percent effect using a custom made software application called SIGHTS and EC50 estimates determined by the software as the concentration of test compound giving an effect half way between the bottom and top asymptotes of the sigmoidal dose response curve. Each experiment included an EC50 determination for alpha melanocyte stimulating hormone, which was used as a standard to track assay consistency and allow fair comparison between EC50 estimates obtained in different experiments.

MC4 receptor (MC4R) = biological target: T3, MC4 receptor (MC4R) (Homo sapiens, UniProt P32245); test: Nle4, D-Phe7-α-MSH inhibition at the MC4 receptor (competition binding, SPA, CHO-CRE MC4R membranes)
T3 construct: expressed in transfected cells; host or cells: CHO-CRE MC4R cells (membranes)
T3 sequence (P32245 whole entry): as the sequence (P32245 whole entry) above
Description: Nle4, D-Phe7-α-MSH Inhibition at the MC4 Receptor
Nle4, D-Phe7-α-MSH is a stable analogue of melanocyte-stimulating hormone (MSH), which is an agonist at the MC4 receptor (MC4R). Compounds can be evaluated for their ability to inhibit Nle4, D-Phe7-α-MSH binding to membranes from cells expressing the MC4R using a competition binding assay versus [^125I] Nle4, D-Phe7-α-MSH.
Cells expressing the MC4R were subject to homogenisation and the membrane fragment isolated by differential centrifugation. CHO-CRE MC4R cell membranes were coupled to PVT-PEI-WGA SPA Beads type A for 2 hours, spun at 1000 RPM for 5 min and suspended to a concentration of 300 ug bead/ml (0.15 ug membrane, 15 ug bead per well). Bead/membrane mix was incubated with 0.06 nM [^125I] Nle4, D-Phe7-α-MSH and 11 half-log concentrations of competitor ligand, in duplicate, in a total volume of 50 μl buffer per well (25 mM HEPES, 1 mM MgCl2, 2.5 mM CaCl2, 1% Pluronic F68, 1 complete EDTA protease inhibitor tablet/50 ml pH7). Non-specific binding was determined by the inclusion of 100 nM SHU9119. The reaction was initiated by the addition of bead/membranes and plates were incubated at room temperature for 12 hours (the first hour on a plate shaker), after which the amount of radioactivity present was determined using a Wallac plate counter. Ki values were determined by data analysis using appropriate software.

cytochrome P450 3A4 = biological target: T4, cytochrome P450 3A4 (Homo sapiens, UniProt P08684); test: High density DDI 3 μM cocktail screen in human liver microsomes, midazolam probe; type: in vitro ADME; settings: 3 µM
T4 construct: utilizes human liver microsomes together with isoform-specific clinical drug probes; from tissue; host or cells: human liver microsomes
T4 sequence (P08684 whole entry, canonical isoform): as the sequence (P08684 whole entry, canonical isoform) above
How it was run: as §1

MC3 receptor (MC3R) = biological target: T5, MC3 receptor (MC3R) (Homo sapiens, UniProt P41968); test: Nle4, D-Phe7-α-MSH inhibition at the MC3 receptor (competition binding, SPA, CHO-CRE MC3R membranes)
T5 construct: expressed in transfected cells; host or cells: CHO-CRE MC3R cells (membranes)
T5 sequence (P41968 whole entry): as the sequence (P41968 whole entry) above
How it was run: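 Competition binding by SPA used CHO-CRE MC3R membranes on WGA beads with 0.06 nM [125I]Nle4,D-Phe7-α-MSH and 11 half-log competitor concentrations. Buffer was 25 mM HEPES, MgCl2, CaCl2, 1% Pluronic F68, pH7, incubated 12 h at room temperature. Non-specific binding was defined with 100 nM SHU9119, and Ki values were derived.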

SMILES | inhibition at 3 µM (CYP3A4) | EC50 (MC4 receptor) | microsomal CLint at 1 μM [1] | EC50 (human MC3 receptors) | Ki (MC4 receptor (MC4R)) | % inhibition 3A4 @ 3 μM (cytochrome P450 3A4) | HLM: Clint, app [1] | Ki (MC3 receptor (MC3R))
CS(=O)(=O)N1CCN(C(=O)[C@@H]2CN(c3cccnn3)C[C@H]2c2ccc(F)cc2F)CCCC1c1ccc(Cl)cc1 (mixture of isomers) [Example 41] | 88% | 25.1 nM | 41 µL/min/mg | 6670 nM | – | – | – | –
CS(=O)(=O)N1CCN(C(=O)[C@@H]2CN(c3ccc(C#N)cn3)C[C@H]2c2ccc(F)cc2F)CCCC1c1ccccc1 (single isomer, unassigned) [Example 39] | 87.5% | 38 nM | 177 µL/min/mg | 942 nM | – | – | – | –
CS(=O)(=O)N1CCN(C(=O)[C@@H]2CN(c3ccc(C#N)cn3)C[C@H]2c2ccc(F)cc2F)CCCC1c1ccccc1 (single isomer, unassigned) [Example 40] | – | 29 nM | – | 607 nM | – | 79.5% | 156 µL/min/mg | –
COc1ccc([C@@H]2CN(c3ccc(=O)[nH]n3)C[C@H]2C(=O)N2CCCC(c3ccc(Cl)cc3)N(S(C)(=O)=O)CC2)c(F)c1 (single isomer, unassigned) [Example 114] | – | 73.4 nM | – | – | 20.8 nM | 27.5% | 16.4 µL/min/mg | 1150 nM
CC(C)(C)N1C[C@@H](C(=O)N2CCC[C@@H](c3ccc(Cl)cc3)N(C(=O)C3CCCC3)CC2)[C@H](c2ccc(F)cc2F)C1 [Example 17] | 66.9% | 43.3 nM | 118 µL/min/mg | – | 513 nM | – | – | 2780 nM
COC(=O)N1CCN(C(=O)[C@@H]2CN(C(C)(C)C)C[C@H]2c2ccc(OC)cc2F)CCC[C@H]1c1ccc(Cl)cc1 [Example 71] | 49.5% | 55.4 nM | 43.4 µL/min/mg | – | 1050 nM | – | – | 10300 nM
COc1ccc([C@@H]2CN(c3ccc(Cl)nn3)C[C@H]2C(=O)N2CCCC(c3ccc(Cl)cc3)N(S(C)(=O)=O)CC2)c(F)c1 (stereo partly drawn) [Example 108, [5-(4-chlorophenyl)-4-(methylsulfonyl)-1,4-diazocan-1-yl]-[(3S,4R)-1-(6-chloro-pyridazine-3-yl)-4-(2-fluoro-4-methoxyphenyl)-pyrrolidin-3-yl]-methanone] | 63.5% | 123 nM | 59 µL/min/mg | – | 180 nM | – | – | 875 nM

Stronger by EC50 (MC4 receptor), values ahead:

inhibition at 3 µM (CYP3A4) | EC50 (MC4 receptor) | microsomal CLint at 1 μM [1] | EC50 (human MC3 receptors) | Ki (MC4 receptor (MC4R)) | % inhibition 3A4 @ 3 μM (cytochrome P450 3A4) | HLM: Clint, app [1] | Ki (MC3 receptor (MC3R)) | SMILES
65.5% | 7.16 nM | 83 µL/min/mg | 436 nM | 189 nM | – | – | – | COC(=O)N1CCN(C(=O)[C@@H]2CN(c3cccnn3)C[C@H]2c2ccc(F)cc2F)CCCC1c1ccccc1 (mixture of isomers) [Example 100]
55.5% | 18.5 nM | 92.6 µL/min/mg | – | 378 nM | – | – | 2100 nM | CC(C)CC(=O)N1CCN(C(=O)[C@@H]2CN(C(C)(C)C)C[C@H]2c2ccc(F)cc2F)CCC[C@H]1c1ccc(Cl)cc1 [Example 16]
60.8% | 2.23 nM | 21.4 µL/min/mg | 506 nM | – | – | – | – | COc1ccc([C@@H]2CN(c3ccc(=O)n(C)n3)C[C@H]2C(=O)N2CCC[C@@H](c3ccc(Cl)cc3)N(C(=O)C3CC3)CC2)c(F)c1 [Example 29]
40.8% | 1.23 nM | 21.8 µL/min/mg | 412 nM | 28.2 nM | – | – | – | COc1ccc([C@@H]2CN(c3ccc(=O)n(C)n3)C[C@H]2C(=O)N2CCC[C@@H](c3ccc(Cl)cc3)N(C(=O)C(C)C)CC2)c(F)c1 [Example 31]
75.8% | 10.8 nM | 234 µL/min/mg | – | 121 nM | – | – | 101 nM | CN(C)C(=O)N1CCN(C(=O)[C@@H]2CN(c3ccc(C#N)nn3)C[C@H]2c2ccc(Cl)cn2)CCC[C@H]1c1ccc(Cl)cc1 [Example 45]
53% | 7.6 nM | 8 µL/min/mg | – | 16.4 nM | – | – | 990 nM | COC(=O)N1CCN(C(=O)[C@@H]2CN(c3ccc(=O)[nH]n3)C[C@H]2c2ccc(OC)cc2F)CCC[C@H]1c1ccc(Cl)cc1 [Example 69, methyl 8S-(4-chlorophenyl)-4-{[(3S,4R)-4-(2-fluoro-4-methoxyphenyl)-1-(6-oxo-1,6-dihydropyridazin-3-yl)pyrrolidin-3-yl]carbonyl}-1,4-diazocane-1-carboxylate]
– | 5.38 nM | – | 148 nM | 24 nM | – | – | 153 nM | COC(=O)N1CCN(C(=O)[C@@H]2CN(c3ccc(C#N)nn3)C[C@H]2c2ccc(OC)cc2F)CCC[C@@H]1c1ccc(Cl)cc1 [Example 88]
– | 14.3 nM | – | 764 nM | 31.3 nM | – | – | 402 nM | COC(=O)N1CCN(C(=O)[C@@H]2CN(c3ccc(C#N)nn3)CC2c2ccc(OC)cc2F)CCC[C@H]1c1ccc(Cl)cc1 (stereo partly shown) [Example 89]
46.9% | 5.26 nM | 13.9 µL/min/mg | – | 52 nM | – | – | 201 nM | COC(=O)N1CCN(C(=O)[C@@H]2CN(c3ccc(C#N)nn3)C[C@H]2c2ccc(Cl)cn2)CCC[C@H]1c1ccc(Cl)cc1 [Example 98, methyl 8S-(4-chlorophenyl)-4-{[(3S,4S)-4-(5-chloropyridin-2-yl)-1-(6-cyanopyridazin-3-yl)pyrrolidin-3-yl]carbonyl}-1,4-diazocane-1-carboxylate]
65% | 12 nM | 16 µL/min/mg | – | 174 nM | – | – | 545 nM | CS(=O)(=O)N1CCN(C(=O)[C@@H]2CN(c3ccc(C#N)nn3)C[C@H]2c2ccc(Cl)cn2)CCC[C@H]1c1ccc(Cl)cc1 [Example 102]
